In ChEMBL document CHEMBL3785005, “Novel triazole hybrids of myrrhanone C, a natural polypodane triterpene: Synthesis, cytotoxic activity and cell based studies” (Eur J Med Chem, 2016):

Key:
Assay type in all cases: functional, cell-based
[1] = tested on: HeLa; assay: Cytotoxicity against human HeLa cells assessed as cell viability after 48 hrs by MTT assay
[2] = tested on: MCF7; assay: Cytotoxicity against human MCF7 cells assessed as cell viability after 48 hrs by MTT assay; details: MCF7, 48 h
[3] = tested on: HepG2; assay: Cytotoxicity against human HepG2 cells assessed as cell viability after 48 hrs by MTT assay; details: HepG2, 48 h
[4] = Cytotoxicity against human DU145 cells assessed as cell viability after 48 hrs by MTT assay; details: DU-145, 48 h
[5] = tested on: A549; assay: Cytotoxicity against human A549 cells assessed as cell viability after 48 hrs by MTT assay; details: A549, 48 h

Compound | IC50 [1] [µM] | IC50 [2] [µM] | IC50 [3] [µM] | IC50 [4] [µM] | IC50 [5] [µM]
CC(C)=CCC/C(C)=C/CC/C(C)=C/CC[C@@H]1[C@@]2(C)C/C(=C\c3ccc(OCc4cn(-c5c(Cl)cc([N+](=O)[O-])cc5Cl)nn4)cc3)C(=O)C(C)(C)[C@@H]2CC[C@@]1(C)O | 36.9 | 27.1 | 25.1 | 20.9 | 34.7
CC(C)=CCC/C(C)=C/CC/C(C)=C/CC[C@@H]1[C@@]2(C)CC/C(=N\OCc3cn(-c4ccncc4)nn3)C(C)(C)[C@@H]2CC[C@@]1(C)O | 18.8 | 12.6 | 22 | 17.4 | 13
CC(C)=CCC/C(C)=C/CC/C(C)=C/CC[C@@H]1[C@@]2(C)C/C(=C\c3ccc(OCc4cn(-c5ccccc5)nn4)cc3)C(=O)C(C)(C)[C@@H]2CC[C@@]1(C)O | 36.3 | 23 | 126 | 21 | 100
CC(C)=CCC/C(C)=C/CC/C(C)=C/CC[C@@H]1[C@@]2(C)C/C(=C\c3ccc(OCc4cn(-c5ccc(F)c(Cl)c5)nn4)cc3)C(=O)C(C)(C)[C@@H]2CC[C@@]1(C)O | 43 | 46.5 | 40.2 | 28.4 | 46.6
COc1cccc(-n2cc(CO/N=C3\CC[C@]4(C)[C@@H](CC/C=C(\C)CC/C=C(\C)CCC=C(C)C)[C@](C)(O)CC[C@H]4C3(C)C)nn2)c1 | 22.9 | 25.4 | 51.3 | 30.5 | 21.7
CC(C)=CCC/C(C)=C/CC/C(C)=C/CC[C@@H]1[C@@]2(C)C/C(=C\c3ccc(OCc4cn(-c5ccncc5)nn4)cc3)C(=O)C(C)(C)[C@@H]2CC[C@@]1(C)O | 77.6 | 37.5 | 105 | 25.7 | 34
CC(C)=CCC/C(C)=C/CC/C(C)=C/CC[C@@H]1[C@@]2(C)CC/C(=N\OCc3cn(-c4ccc(F)cc4)nn3)C(C)(C)[C@@H]2CC[C@@]1(C)O | 21.4 | 25.9 | 63.1 | 21.6 | 18
CC(C)=CCC/C(C)=C/CC/C(C)=C/CC[C@@H]1[C@@]2(C)C/C(=C\c3ccc(OCc4cn(-c5cccc(C(F)(F)F)c5)nn4)cc3)C(=O)C(C)(C)[C@@H]2CC[C@@]1(C)O | 17.3 | 13.8 | 27.6 | 9.33 | 23.2
COc1cccc(-n2cc(COc3ccc(/C=C4\C[C@]5(C)[C@@H](CC/C=C(\C)CC/C=C(\C)CCC=C(C)C)[C@](C)(O)CC[C@H]5C(C)(C)C4=O)cc3)nn2)c1 | 16.2 | 16.6 | 50.1 | 14.5 | 45.7
CC(C)=CCC/C(C)=C/CC/C(C)=C/CC[C@@H]1[C@@]2(C)CCC(=O)C(C)(C)[C@@H]2CC[C@@]1(C)O | 18.3 | 16.2 | 26.6 | 13.2 | 12
CC(C)=CCC/C(C)=C/CC/C(C)=C/CC[C@@H]1[C@@]2(C)CC/C(=N\OCc3cn(-c4ccc(Cl)cc4)nn3)C(C)(C)[C@@H]2CC[C@@]1(C)O | 14.8 | 12.4 | 19.9 | 16.2 | 12.3
CC(C)=CCC/C(C)=C/CC/C(C)=C/CC[C@@H]1[C@@]2(C)C/C(=C\c3ccc(OCc4cn(-c5ccc(F)cc5)nn4)cc3)C(=O)C(C)(C)[C@@H]2CC[C@@]1(C)O | 126 | 42 | 35.9 | 33.6 | 55.2
CC(C)=CCC/C(C)=C/CC/C(C)=C/CC[C@@H]1[C@@]2(C)CC/C(=N\OCc3cn(-c4c(Cl)cc([N+](=O)[O-])cc4Cl)nn3)C(C)(C)[C@@H]2CC[C@@]1(C)O | 23 | 16.6 | 34.9 | 16.4 | 11.2
CC(C)=CCC/C(C)=C/CC/C(C)=C/CC[C@@H]1[C@@]2(C)C/C(=C\c3ccc(OCc4cn(-c5ccccc5C#N)nn4)cc3)C(=O)C(C)(C)[C@@H]2CC[C@@]1(C)O | 100 | 29.9 | 63.1 | 25.1 | 61.6
CC(C)=CCC/C(C)=C/CC/C(C)=C/CC[C@@H]1[C@@]2(C)CC/C(=N\OCc3cn(-c4ccc(F)c(F)c4F)nn3)C(C)(C)[C@@H]2CC[C@@]1(C)O | 26.2 | 32.2 | 37.7 | 30.4 | 26.9
CC(C)=CCC/C(C)=C/CC/C(C)=C/CC[C@@H]1[C@@]2(C)C/C(=C\c3ccc(OCc4cn(-c5ccc(Cl)cc5)nn4)cc3)C(=O)C(C)(C)[C@@H]2CC[C@@]1(C)O | 50.7 | 72.4 | 123 | 79.4 | 83.2
CC(C)=CCC/C(C)=C/CC/C(C)=C/CC[C@@H]1[C@@]2(C)CC/C(=N\OCc3cn(-c4cccc(O)c4)nn3)C(C)(C)[C@@H]2CC[C@@]1(C)O | 13.5 | 9.9 | 21.2 | 17.5 | 12.8
COc1cccc2c1C(=O)c1c(O)c3c(c(O)c1C2=O)C[C@@](O)(C(=O)CO)C[C@@H]3O[C@H]1C[C@H](N)[C@H](O)[C@H](C)O1 [DOXORUBICIN] | 2.57 | – | 3.01 | 1.41 | 2.81
CC(C)=CCC/C(C)=C/CC/C(C)=C/CC[C@@H]1[C@@]2(C)C/C(=C\c3ccc(OCc4cn(-c5cccc([N+](=O)[O-])c5)nn4)cc3)C(=O)C(C)(C)[C@@H]2CC[C@@]1(C)O | 32.9 | 79.4 | 117 | 46.4 | 126
CC(C)=CCC/C(C)=C/CC/C(C)=C/CC[C@@H]1[C@@]2(C)C/C(=C\c3ccc(OCc4cn(-c5cccc(Br)c5)nn4)cc3)C(=O)C(C)(C)[C@@H]2CC[C@@]1(C)O | 37.1 | 61 | 23.7 | 40.5 | 33.8
CC(C)=CCC/C(C)=C/CC/C(C)=C/CC[C@@H]1[C@@]2(C)CC/C(=N\OCc3cn(-c4cccc(C(F)(F)F)c4)nn3)C(C)(C)[C@@H]2CC[C@@]1(C)O | 12.5 | 21.4 | 22.7 | 11.8 | 12.9
CC(C)=CCC/C(C)=C/CC/C(C)=C/CC[C@@H]1[C@@]2(C)CC/C(=N\OCc3cn(-c4cccc([N+](=O)[O-])c4)nn3)C(C)(C)[C@@H]2CC[C@@]1(C)O | 18.4 | 20.7 | 22 | 17.4 | 14.8
CC(C)=CCC/C(C)=C/CC/C(C)=C/CC[C@@H]1[C@@]2(C)C/C(=C\c3ccc(OCc4cn(-c5cccc(O)c5)nn4)cc3)C(=O)C(C)(C)[C@@H]2CC[C@@]1(C)O | 158 | 45.5 | 26.9 | 40.6 | 110
CC(C)=CCC/C(C)=C/CC/C(C)=C/CC[C@@H]1[C@@]2(C)CC/C(=N\OCc3cn(-c4cccc(Br)c4)nn3)C(C)(C)[C@@H]2CC[C@@]1(C)O | 15.7 | 24.8 | 39.8 | 14.6 | 11.7
CC(C)=CCC/C(C)=C/CC/C(C)=C/CC[C@@H]1[C@@]2(C)CC/C(=N\OCc3cn(-c4ccccc4C#N)nn3)C(C)(C)[C@@H]2CC[C@@]1(C)O | 21.2 | 24.9 | 21.9 | 25.1 | 19.9
CC(C)=CCC/C(C)=C/CC/C(C)=C/CC[C@@H]1[C@@]2(C)CC/C(=N\OCc3cn(-c4ccc(F)c(Cl)c4)nn3)C(C)(C)[C@@H]2CC[C@@]1(C)O | 20.1 | 31.4 | 58.9 | 26.9 | 21.4
COc1cc(OC)c(-n2cc(COc3ccc(/C=C4\C[C@]5(C)[C@@H](CC/C=C(\C)CC/C=C(\C)CCC=C(C)C)[C@](C)(O)CC[C@H]5C(C)(C)C4=O)cc3)nn2)c(OC)c1 | 17.5 | 13.5 | 57.5 | 12 | 16.1
